Experimental data: patent publication US12295938B2, “Composition for treating castration-resistant prostate cancer, comprising quassinoids” (SAMSUNG LIFE PUBLIC WELFARE FOUNDATION, priority 2019, dated 2025)
Structures can show the parent of a compound that is named as a salt.

Assays:
[1] = system: AR-V7 transcriptional activity; test: MMTV-LUC luciferase reporter assay in 22RV1 cells, DHT− (screening and IC50); type: cell-based; conditions: 22RV1 cells, no DHT, control = 100
Procedure: (§1) A library of antimalarial agents was screened using a luciferase reporter assay to measure changes in AR/AR-V7 transcriptional activity.
(§2) Screening was made primarily with 10 μM of each drug.

[2] = system: AR transcriptional activity; test: MMTV-LUC luciferase reporter assay in 22RV1 cells, DHT+ (screening and IC50); type: cell-based; conditions: with DHT, control = 100
Procedure: as §1, §2

| Compound | activity at 10 µM ([1]; Homo sapiens, 10 uM) [%] | activity at 10 µM ([2]; Homo sapiens, 10 uM) [%] | MMTV-LUC activity (%) DHT− ([1]; 10 uM) [%] | MMTV-LUC activity (%) DHT+ ([2]; 10 uM) [%] | other results |
| --- | --- | --- | --- | --- | --- |
| CC(=O)Oc1cccc2c1C(=O)c1c(OC(C)=O)cc(C(=O)O)cc1C2=O [1,8-Diacetoxy-3-carboxyanthraquinone] | 101 ± 8.7 | 98.5 ± 2.1 | – | – | – |
| O=C1c2cccc(O)c2C(=O)c2c(O)cccc21 [1,8-Dihydroxyanthraquinone] | 83.8 ± 2.9 | – | – | – | – |
| CC1CCCC=CC(=O)c2c(O)cc(O)cc2CC(=O)O1 (stereo not drawn) [10,11-Dehydrocurvularin] | – | – | 16.3 ± 2.5 | 5.5 ± 0.6 | MMTV-LUC activity (%) DHT− ([1]; 1 uM): 383.1 ± 24.6%; MMTV-LUC activity (%) DHT+ ([2]; 1 uM): 206.9 ± 15.0% |
| CC[C@](C)(O)C(=O)O[C@H]1C(=O)O[C@@H]2C[C@H]3C(C)=CC(=O)[C@@H](O)[C@]3(C)[C@H]3[C@@]4(O)OC[C@]32[C@@H]1[C@@H](C)[C@H]4O [(+)-Glaucarubinone] | – | – | 107.6 ± 26.5 | 117.7 ± 3.5 | – |
| CC(=O)O[C@H](CC=C(C)C)C1=CC(=O)c2c(O)ccc(O)c2C1=O [Acetylshikonin] | 38.6 ± 3.2 | 17.7 ± 1.5 | – | – | activity at 1 µM ([1]; Homo sapiens, 1 uM): 103 ± 7.7%; activity at 1 µM ([2]; Homo sapiens, 1 uM): 113 ± 16.6% |
| O=C1c2c(O)cccc2C([C@@H]2O[C@H](CO)[C@@H](O)[C@H](O)[C@H]2O)c2cc(CO)cc(O)c21 (stereo partly drawn) [Aloin A] | – | – | 108.3 ± 5.0 | – | – |
| CCN(CC)Cc1cc(Nc2ccnc3cc(Cl)ccc23)ccc1O [Amodiaquine dihydrochloride dihydrate] | 91.6 ± 2.9 | 102 ± 4.3 | – | – | – |
| C=C1CC[C@@H]2[C@](C)(CO)[C@H](O)CC[C@@]2(C)[C@@H]1C/C=C1/C(=O)OC[C@H]1O [Andrographolide] | 157 ± 4.3 | 196 ± 5 | – | – | – |
| CO[C@H]1O[C@@H]2O[C@@]3(C)CC[C@H]4[C@H](C)CC[C@@H]([C@H]1C)[C@@]24OO3 [Artemether] | 97.5 ± 19.5 | 138 ± 8.8 | – | – | – |
| C[C@@H]1CC[C@H]2[C@@H](C)C(=O)O[C@@H]3O[C@@]4(C)CC[C@@H]1[C@]32OO4 [Artemisinin] | 107 ± 4.3 | 156 ± 17.6 | – | – | – |
| C[C@H]1[C@H](OC(=O)CCC(=O)O)O[C@@H]2O[C@@]3(C)CC[C@H]4[C@H](C)CC[C@@H]1[C@@]24OO3 [Artesunate] | 107.6 ± 0.8 | – | – | – | – |
| COc1c(O)cc2c(c1O)C(=O)c1c(cc(C)c(O)c1OC)C2=O [Aurantio-obtusin] | 119 ± 27.4 | 124 ± 2.2 | – | – | – |
| COC(=O)[C@]12OC[C@]34[C@H]([C@@H](O)[C@@H]1O)[C@@]1(C)CC(=O)C(O)=C(C)[C@@H]1C[C@H]3OC(=O)[C@H](OC(=O)/C=C(\C)C(C)(C)OC(C)=O)[C@@H]24 [Bruceantinol] | 81.2 ± 62.1 | 44.5 ± 2.1 | – | – | activity at 1 µM ([1]; Homo sapiens, 1 uM): 73.5 ± 11.9%; activity at 1 µM ([2]; Homo sapiens, 1 uM): 119 ± 21.8% |
| COC(=O)[C@]12OC[C@]34[C@H]([C@@H](O)[C@@H]1O)[C@@]1(C)C=C(O[C@@H]5O[C@H](CO)[C@@H](O)[C@H](O)[C@H]5O)C(=O)[C@@H](C)[C@@H]1C[C@H]3OC(=O)[C@H](OC(=O)/C=C(\C)C(C)C)[C@@H]24 [Bruceantinoside A] | – | – | 6.5 ± 0.9 | 3.8 ± 1.1 | MMTV-LUC activity (%) DHT− ([1]; 0.1 uM): 44.9 ± 5.5%; MMTV-LUC activity (%) DHT− ([1]; 1 uM): 11.5 ± 5.6%; MMTV-LUC activity (%) DHT+ ([2]; 0.1 uM): 61.0 ± 7.3%; MMTV-LUC activity (%) DHT+ ([2]; 1 uM): 8.0 ± 0.2% |
| CC1=CC(=O)[C@@H](O)[C@]2(C)[C@H]3[C@@H](O)[C@H](O)[C@]4(C)OC[C@@]35[C@@H](C[C@@H]12)OC(=O)[C@H](O)[C@]54O [Bruceine D] | – | – | 7.9 ± 1.3 | 1.1 ± 0.1 | MMTV-LUC activity (%) DHT− ([1]; 0.1 uM): 46.0 ± 6.4%; MMTV-LUC activity (%) DHT− ([1]; 1 uM): 7.0 ± 1.2%; MMTV-LUC activity (%) DHT+ ([2]; 0.1 uM): 32.6 ± 6.2%; MMTV-LUC activity (%) DHT+ ([2]; 1 uM): 2.0 ± 0.2% |
| C[C@H]1COC2=C1C(=O)C(=O)c1c2ccc2c1CCCC2(C)C [Cryptotanshinone] | 70.3 ± 3.2 | 62.7 ± 15.3 | – | – | – |
| CC1CCCCCC(=O)c2c(O)cc(O)cc2CC(=O)O1 (stereo not drawn) [Curvularin] | 76.8 ± 3 | 91.6 ± 9.4 | – | – | – |
| COC(=O)[C@]12OC[C@@]34[C@@H](CC5=C(C)C(=O)C(O)=C[C@]5(C)[C@H]3[C@@H](O)[C@@H]1O)OC(=O)[C@H](OC(=O)CC(C)C)[C@@H]24 [Dehydrobruceine A] | – | – | 133.8 ± 14.5 | 164.2 ± 16.0 | – |
| C[C@H]1[C@@H](O)O[C@@H]2O[C@@]3(C)CC[C@H]4[C@H](C)CC[C@@H]1[C@@]24OO3 [Dihydroartemisinin] | 115 ± 10.1 | 138 ± 7 | – | – | – |
| CNC(=O)c1ccc(N2C(=S)N(c3ccc(C#N)c(C(F)(F)F)c3)C(=O)C2(C)C)cc1F [Enzalutamide] | 79.4 ± 34.6 | – | – | – | activity at 1 µM ([1]; Homo sapiens, 1 uM): 87.4 ± 11.3% |
| C=C1[C@@H](O)[C@]2(O)OC[C@]34[C@H]2[C@@]2(C)[C@H](O)C(=O)C=C(C)[C@@H]2C[C@H]3OC(=O)[C@H](O)[C@@]14O [Eurycomanone] | 17.7 ± 2.7 | 6.7 ± 0.5 | – | – | activity at 0.1 µM ([1]; Homo sapiens, 0.1 uM): 128 ± 12%; activity at 1 µM ([1]; Homo sapiens, 1 uM): 59.1 ± 7.6%; activity at 0.1 µM ([2]; Homo sapiens, 0.1 uM): 108 ± 4.7%; activity at 1 µM ([2]; Homo sapiens, 1 uM): 51.3 ± 4.6% |

| Compound | activity at 10 µM ([1]; Homo sapiens, 10 uM) [%] | activity at 10 µM ([2]; Homo sapiens, 10 uM) [%] | MMTV-LUC activity (%) DHT− ([1]; 10 uM) [%] | MMTV-LUC activity (%) DHT+ ([2]; 10 uM) [%] | other results |
| --- | --- | --- | --- | --- | --- |
| C[C@H](CC(=O)C[C@@H](C)[C@H]1C[C@H](O)[C@@]2(C)C3=C(C(=O)C[C@]12C)[C@@]1(C)CCC(=O)C(C)(C)[C@@H]1C[C@@H]3O)C(=O)O [Ganoderic acid A] | – | – | 140.0 ± 3.8 | 148.9 ± 2.8 | – |
| CCN(CCO)CCCC(C)Nc1ccnc2cc(Cl)ccc12 (stereo not drawn) [Hydroxychloroquinesulfate] | 92.3 ± 2 | – | – | – | – |
| C=CC(C)(C)c1cc(/C=C/C(=O)c2ccc(O)cc2)c(OC)cc1O [Licochalcone A] | – | – | 202.7 ± 7.1 | 235.6 ± 0.2 | – |
| CCCCN(CCCC)CC(O)c1cc(Cl)cc2c1-c1ccc(Cl)cc1/C2=C/c1ccc(Cl)cc1 (stereo not drawn) [Lumefantrine] | 138 ± 9.5 | – | – | – | – |
| C=CCc1ccc(O)c(-c2cc(CC=C)ccc2O)c1 [Magnolol] | 130 ± 12 | 152 ± 8.6 | – | – | – |
| COC(=O)c1c2c(c3ccccc3c1O)OC(C)(C)C=C2 [Mollugin] | 94.7 ± 9.5 | 112 ± 11.1 | – | – | – |
| O=C(Nc1ccc([N+](=O)[O-])cc1Cl)c1cc(Cl)ccc1O [Niclosamide] | 9.4 ± 0.6 | – | – | – | activity at 1 µM ([1]; Homo sapiens, 1 uM): 119 ± 10.8% |
| O=C(CCc1ccc(O)cc1)c1c(O)cc(O)cc1O[C@@H]1O[C@H](CO)[C@@H](O)[C@H](O)[C@H]1O [Phlorizin] | 154 ± 6.6 | 184 ± 12.6 | – | – | – |
| CC1=CC(=O)c2c(O)cccc2C1=O [Plumbagin] | 26 ± 7.6 | 7.1 ± 0.1 | – | – | activity at 1 µM ([1]; Homo sapiens, 1 uM): 215 ± 16.1%; activity at 1 µM ([2]; Homo sapiens, 1 uM): 143 ± 27.5% |
| CCc1nc(N)nc(N)c1-c1ccc(Cl)cc1 [Pyrimethamine] | 130.5 ± 0.2 | – | – | – | – |
| COC1=C[C@@H](C)[C@@H]2C[C@H]3OC(=O)C[C@H]4C(C)=C(OC)C(=O)[C@H]([C@@]2(C)C1=O)[C@@]34C [Quassin] | 110 ± 9 | 120 ± 5.6 | – | – | – |
| O=C(O)c1cc(O)c2c(c1)C(=O)c1cccc(O)c1C2=O [Rhein] | 83 ± 9.2 | – | – | – | – |
| O=C(O)c1cc(O)c2c(c1)[C@H]([C@H]1c3cc(C(=O)O)cc(O)c3C(=O)c3c(O[C@@H]4O[C@H](CO)[C@@H](O)[C@H](O)[C@H]4O)cccc31)c1cccc(O[C@@H]3O[C@H](CO)[C@@H](O)[C@H](O)[C@H]3O)c1C2=O [Sennoside A] | – | – | 105.5 ± 4.4 | – | – |
| COc1ncnc(NS(=O)(=O)c2ccc(N)cc2)c1OC [Sulfadoxine] | 116 ± 4.4 | – | – | – | – |
| CC1=CC(=O)[C@@H](O)[C@]2(C)[C@H]3[C@@H](O)[C@H](O)[C@]4(CO)OC[C@@]35[C@@H](C[C@@H]12)OC(=O)[C@H](O)[C@]54O [Yadanziolide A] | – | – | 8.0 ± 0.6 | 4.1 ± 0.2 | MMTV-LUC activity (%) DHT− ([1]; 1 uM): 54.1 ± 13.0%; MMTV-LUC activity (%) DHT+ ([2]; 1 uM): 58.3 ± 10.9% |
| CC1=CC(=O)[C@@H](O)[C@@]2(C)[C@H]1[C@@H](O)[C@H]1OC(=O)[C@H](O)[C@]3(O)[C@]14CO[C@]3(CO)[C@@H](O)[C@H](O)[C@H]24 [Yadanziolide B] | – | – | 8.2 ± 1.0 | 4.0 ± 0.5 | MMTV-LUC activity (%) DHT− ([1]; 0.1 uM): 23.1 ± 5.2%; MMTV-LUC activity (%) DHT− ([1]; 1 uM): 7.2 ± 0.8%; MMTV-LUC activity (%) DHT+ ([2]; 0.1 uM): 32.8 ± 9.0%; MMTV-LUC activity (%) DHT+ ([2]; 1 uM): 4.2 ± 0.4% |
| COC(=O)[C@]12OC[C@]34[C@H]([C@@H](O)[C@@H]1O)[C@@]1(C)C=C(O[C@@H]5O[C@H](CO)[C@@H](O)[C@H](O)[C@H]5O)C(=O)[C@@H](C)[C@@H]1C[C@H]3OC(=O)[C@H](OC(=O)/C=C(\C)C(C)(C)O)[C@@H]24 [Yadanzioside C] | – | – | 110.4 ± 11.6 | 5.8 ± 0.7 | MMTV-LUC activity (%) DHT− ([1]; 1 uM): 118.9 ± 18.1%; MMTV-LUC activity (%) DHT+ ([2]; 1 uM): 55.6 ± 0.7% |
| COC(=O)[C@]12OC[C@]34[C@H]([C@@H](O)[C@@H]1O)[C@@]1(C)C=C(O[C@@H]5O[C@H](CO)[C@@H](O)[C@H](O)[C@H]5O)C(=O)[C@@H](C)[C@@H]1C[C@H]3OC(=O)[C@H](OC(C)=O)[C@@H]24 [Yadanzioside F] | – | – | 133.6 ± 21.7 | 139.5 ± 11.0 | – |
| COC(=O)[C@]12OC[C@]34[C@H]([C@@H](O)[C@@H]1O)[C@@]1(C)CC(=O)C(O[C@@H]5O[C@H](CO)[C@@H](O)[C@H](O)[C@H]5O)=C(C)[C@@H]1C[C@H]3OC(=O)[C@H](OC(C)=O)[C@@H]24 [Yadanzioside I] | – | – | 123.2 ± 10.4 | 136.0 ± 7.1 | – |
| CC(C)=CC[C@H](OC(=O)C=C(C)C)C1=CC(=O)c2c(O)ccc(O)c2C1=O [β, β-Dimethylacrylalkannin] | – | – | 33.3 ± 3.2 | 19.9 ± 3.5 | MMTV-LUC activity (%) DHT− ([1]; 1 uM): 100.2 ± 11.4%; MMTV-LUC activity (%) DHT+ ([2]; 1 uM): 107.9 ± 7.0% |
| Bruceanic acid C | – | – | 68.5 ± 6.3 | 85.8 ± 14.2 | – |
